Experimental findings from article PMC12220852, “An adamantane‐based ligand as a novel chemical tool for thermosensory TRPM8 channel therapeutic modulation” (The Febs Journal, 2025) are described below.

The test addresses T1, hTRPM8 (Homo sapiens, UniProt Q7Z2W7).
T1 construct: expressed in transfected cells; host or cells: HEK293 (transient, Lipofectamine 3000)
Kind of test: Whole-cell patch-clamp of WS-12-evoked currents in HEK293 cells expressing hTRPM8. The test is classed as cell-based. From the text: We first used patch‐clamp to investigate the potency and blockade mechanism of compound 23 inhibiting WS‐12 evoked ionic currents in hTRPM8‐HEK293 cells. […] This blockade activity was reversible as virtually all WS‐12‐evoked ionic current could be recovered upon washout (Fig. 3A, bottom panel), thus preventing a use‐dependent side effect.
To unveil the underlying mechanism of channel blockade (competitive vs noncompetitive) we evaluated the effect of the α‐acyloxy carboxamide 23 on WS‐12 activating potency. For this purpose, we obtained the WS‐12 dose response in the absence and presence of 80 nM compound 23 (corresponding to its IC50 value).
For this purpose, we run 100 ms voltage ramps from −120 to 120 mV activated by WS‐12 in the absence and presence of 80 nM α‐acyloxy carboxamide 23.
Recording through patch‐clamp techniques was performed on HEK293 cells cultured in DMEM GlutaMax with 10% FBS and 1% P/S. The cell lines were authenticated following the standardization of STR Profiling guidelines (ANSI/ATCC ASN‐0002‐2022) using the CLA Identifier Plus PCR Amplification Kit (Thermo Fisher‐A44660) to analyze 16 highly variant human STRs. The cells were confirmed to be mycoplasma‐free. These cells were transiently transfected with plasmids encoding hTRPV1, hTRPM8, or hTRPA1 using Lipofectamine 3000. Transfected cells were seeded on 12 mm Ø glass coverslips treated with poly‐L‐lysine solution and recorded 2 days post‐transfection. The intracellular pipette solution included (in mM) 150 NaCl, 3 MgCl2, 5 EGTA, and 10 HEPES, pH 7.2 with CsOH, while the extracellular solution contained (in mM) 150 NaCl, 6 CsCl, 1 MgCl2, 1.5 CaCl2, 10 glucose, and 10 HEPES, pH 7.4 with NaOH. An EPC‐10 amplifier with Patchmaster software was used in whole‐cell experiments. Patch pipettes, created from thin‐wall borosilicate capillary glass tubing, were pulled with a Micropipette puller to a final resistance of 2–8 MΩ when filled with the internal solution. Recordings were acquired at 10 kHz and low‐pass filtered at 3 kHz, discarding recordings with leak currents > 200pA or series resistance > 20 MΩ. In voltage‐clamp recordings, cells were held at a constant potential, and the application of modulators was carried out using a gravity‐driven perfusion system. Total currents were normalized to the first current peak evoked by the activating stimuli. To study the effect of compound 23 on TRPM8 voltage dependence, a voltage step protocol from −120 to 120 mV was used with 100 ms steps of 20 mV from a holding potential at 0 mV. Leak currents were not subtracted, and conductance was calculated using the equation: G = I/(V − V r), where I is the measured ionic current, V is the applied voltage, and V r is the reversal potential that for the ionic conditions used was set to 0 mV.
Dose–response relationships for WS‐12 channel activation were normalized to the response of the channel to a saturating concentration of the agonist. Similarly, dose–response curves for blockade activity were normalized with respect to the response in the absence of the blocker. The experimental data were fitted to the Hill equation: Y=Bottom+Top‐Bottom/(1+10^ligand−LogIC50orLogEC50) using PRISM 9 software. Top was fixed to 100, as the unblocked response or the maximal response for WS‐12.

Several values for one entry are separate records, joined by “and”; a condition that tells them apart may be missing. Equal values may be shown once. A value given as a limit tells only on which side of the number the result lay.

T1 sequence (Q7Z2W7 whole entry): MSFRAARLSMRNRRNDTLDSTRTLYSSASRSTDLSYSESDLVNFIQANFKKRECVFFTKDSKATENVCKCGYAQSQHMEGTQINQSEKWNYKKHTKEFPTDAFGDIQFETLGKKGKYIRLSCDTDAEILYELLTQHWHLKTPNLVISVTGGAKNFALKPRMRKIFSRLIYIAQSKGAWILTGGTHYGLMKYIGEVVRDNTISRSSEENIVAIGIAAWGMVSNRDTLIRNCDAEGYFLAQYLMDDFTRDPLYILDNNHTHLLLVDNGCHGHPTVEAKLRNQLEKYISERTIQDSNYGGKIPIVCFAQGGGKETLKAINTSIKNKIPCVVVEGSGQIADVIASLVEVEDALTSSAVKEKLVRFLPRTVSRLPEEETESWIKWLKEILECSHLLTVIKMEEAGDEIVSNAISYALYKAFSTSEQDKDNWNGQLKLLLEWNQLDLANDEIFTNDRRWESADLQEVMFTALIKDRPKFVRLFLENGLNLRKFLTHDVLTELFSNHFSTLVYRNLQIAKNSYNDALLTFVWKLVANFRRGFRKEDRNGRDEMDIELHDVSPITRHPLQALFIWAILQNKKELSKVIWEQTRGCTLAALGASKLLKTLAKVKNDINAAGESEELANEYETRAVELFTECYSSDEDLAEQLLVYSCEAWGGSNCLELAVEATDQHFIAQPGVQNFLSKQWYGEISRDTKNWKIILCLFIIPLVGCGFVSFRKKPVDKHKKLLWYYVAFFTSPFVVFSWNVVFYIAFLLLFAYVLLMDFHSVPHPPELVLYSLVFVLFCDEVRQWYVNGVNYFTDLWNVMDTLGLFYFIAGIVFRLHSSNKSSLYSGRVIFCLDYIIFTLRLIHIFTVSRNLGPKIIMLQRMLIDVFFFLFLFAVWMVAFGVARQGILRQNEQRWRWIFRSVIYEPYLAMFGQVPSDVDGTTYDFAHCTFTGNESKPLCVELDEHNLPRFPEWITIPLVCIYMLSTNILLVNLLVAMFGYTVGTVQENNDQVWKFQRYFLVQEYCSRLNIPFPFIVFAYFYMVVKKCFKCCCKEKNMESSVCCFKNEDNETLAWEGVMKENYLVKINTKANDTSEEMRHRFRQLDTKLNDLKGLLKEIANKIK

A word on the IC50: it is the midpoint of a concentration-inhibition curve. Take `O=C(COC(=O)c1ccccc1-c1ccccc1)NC12CC3CC(CC(C3)C1)C2` [Compound 23, 2‐((3S,5S,7S)‐adamantan‐1‐ylamino)‐2‐oxoethyl [1,1′‐biphenyl]‐2‐carboxylate]: for the setting “1 μM compound, 1 μM WS-12, holding potential −60 mV”, the “reduction of WS‐12 evoked inward current” value is given as at least 75%. Also, the Schild plot slope (WS12 vs compound 23 at 0.02, 0.08, 0.1, 0.5 μM) is 1.003 and 1.0. In addition, the “reversibility of blockade upon washout” value (WS-12-evoked current recovered after washout) is listed as “reversible”. Also, the “mechanism of channel blockade” value (WS-12 dose-response shift and Schild plot) is recorded as “competitive”. The “Hill coefficient of hTRPM8 current blockade” value (patch-clamp dose-response, −60 mV) is 1. For the same molecule, the IC50 (patch-clamp, WS-12 evoked current, −60 mV, N = 3, n = 10, read-out: IC50 of hTRPM8 current blockade) was 80 ± 70 nM. In addition, for the setting “voltage steps −120 to 120 mV, 0.08 μM compound 23, 10 μM AMTB”, the “voltage dependency of channel blockade” value is on record as “not voltage dependent”.
